Experimental findings from patent US8802686B2, “Sulfone-substituted anilinopyrimidine derivatives as CDK inhibitors, the production thereof, and use as a medicine” (Bayer Intellectual Property GmbH, priority 2008, dated 2014) are described below.

Like-named read-outs stand apart in the source and are kept apart here.

One assay addresses CDK1/CycB (Homo sapiens (Human), UniProt P06493). Kind of assay: CDK1/CycB kinase assay (Assay 1). The following applies: read-out: CDK1/CycB (Assay 1) Concentration of the half-maximal inhibition of the enzyme activity, IC50. The assay is classed as biochemical.
The target of a further assay is CDK2/CycE (Homo sapiens (Human), UniProt P24941). In words: CDK2/CycE kinase assay (Assay 2). It is filed as biochemical. The conditions noted are these: read-out: CDK2/CycE (Assay 2) Concentration of the half-maximal inhibition of the enzyme activity, IC50.
Assay [1] concerns MCF7, hormone-independent human breast carcinoma cells. In words: Proliferation assay (Assay 5), MCF7. The following applies: read-out: Concentration of the half-maximal inhibition of the cell proliferation, IC50. It is filed as cell-based. The text has this: (§1) Cultivated human tumour cells (MCF7, hormone-independent human breast carcinoma cells, acquired from ATCC HTB22; NCI-H460, human non-small-cell lung carcinoma cells, ATCC HTB-177; DU 145, hormone-independent human prostrate carcinoma cells, ATCC HTB-81; HeLa-MaTu, human cervix carcinoma cells, EPO-GmbH, Berlin; HeLa-MaTu-MDR, multiple drug-resistant human cervix carcinoma cells, EPO-GmbH, Berlin; Caco-2, human colon carcinoma cells, ATCC HTB-37; B16F10, murine melanoma cell, ATCC CRL-6475) were plated out at a density of ca. 1000-5000 cells/measuring point, depending on the growth rate of the particular cells, in a 96-well multititre plate in 200 μl of the corresponding growth medium. After 24 hours, the cells of one plate (zero-point plate) were stained with crystal violet (see below), whereas the medium of the other plates was replaced with fresh culture medium (200 μl), to which the test substances had been added at different concentrations (0 μM, and in the range 0.003-3 μM; the final concentration of the solvent dimethyl sulphoxide was 0.5%). The cells were incubated for 4 days in the presence of the test substances. Cell proliferation was determined by staining the cells with crystal violet: the cells were fixed by adding 20 μl/measuring point of an 11% glutaraldehyde solution for 15 min at room temperature. After washing the fixed cells with water three times, the plates were dried at room temperature. The cells were stained by adding 100 μl/measuring point of a 0.1% crystal violet solution (pH adjusted to pH 3 by adding acetic acid). After washing the stained cells with water three times, the plates were dried at room temperature. The dye was dissolved by adding 100 μl/measuring point of a 10% acetic acid solution. The extinction was determined photometrically at a wavelength of 595 nm. […] The IC50 values were determined by means of a 4-parameter fit using the company's own software.

In assay [2] the test system is HeLa-MaTu-ADR (HeLa-MaTu-MDR, multiple drug-resistant human cervix carcinoma cells). In words: Proliferation assay (Assay 5), HeLa-MaTu-ADR. It is filed as cell-based. The following applies: 96 h, HeLa-MaTu-ADR, 4 days, read-out: Concentration of the half-maximal inhibition of the cell proliferation, IC50.
Excerpt: as §1

Assay [3] deals with NCI-H460, human non-small-cell lung carcinoma cells. Kind of assay: Proliferation assay (Assay 5), NCI-H460. The assay is classed as cell-based. The conditions noted are these: 96 h, NCI-H460, 4 days, read-out: Concentration of the half-maximal inhibition of the cell proliferation, IC50.
Excerpt: as §1

In assay [4] the test system is DU 145, hormone-independent human prostrate carcinoma cells. In words: Proliferation assay (Assay 5), DU145. The assay is classed as cell-based. The following applies: DU-145, 96 h, DU145, 4 days, read-out: Concentration of the half-maximal inhibition of the cell proliferation, IC50.
Excerpt: as §1

Assay [5] relates to Caco-2, human colon carcinoma cells. Kind of assay: Proliferation assay (Assay 5), Caco-2. The following applies: 96 h, Caco-2, 4 days, read-out: Concentration of the half-maximal inhibition of the cell proliferation, IC50. The assay is classed as cell-based.
Excerpt: as §1

The subject of assay [6] is B16F10, murine melanoma cell. In words: Proliferation assay (Assay 5), B16F10. It is filed as cell-based. The conditions noted are these: Mus musculus, B16-F10, 96 h; B16F10, 4 days; read-out: Concentration of the half-maximal inhibition of the cell proliferation, IC50.
Excerpt: as §1

Another assay concerns the target CDK4/CycD1 (Homo sapiens (Human), UniProt P11802). In words: CDK4/CycD kinase assay (Assay 3). The assay is classed as biochemical. The following applies: read-out: CDK4/CycD (Assay 3) Concentration of the half-maximal inhibition of the enzyme activity, IC50. How it is done:
Recombinant CDK4 and CycD1-GST fusion proteins, purified from baculovirus-infected insect cells (Sf9), were purchased from ProQinase GmbH, Freiburg. CDK4/CycD1 (250 ng/measuring point) was incubated for 3 hours at 22° C. in the presence of different concentrations of test substances (0 μM, and within the range 0.001-10 μM) in 31 μl of assay buffer [50 mM Hepes pH 7.0; 2.5 mM MnCl; 0.05 mM Na ortho-vanadate; 1.0 mM dithiothreitol; 0.25 μM adenosine trisphosphate (ATP); 0.5 μM biotinylated myelin basic protein (bio-MPB, GE Healthcare); 0.05 μCi/measuring point ^33P-gamma ATP; 0.005% NP40; 0.025% bovine serum albumin; 3% dimethyl sulphoxide]. The reaction was stopped by adding 50 μl of stop-mix [100 μM ATP; 10 mM EDTA pH 8.0; 0.2% Triton X100; 0.125 mg of streptavidin-SPA Beads (GE Healthcare)]. After incubation for 10 min at room temperature, the SPA beads were pelleted by centrifugation (10 min; 1500 g). The amount of incorporated ^33P (substrate phosphorylation) was determined by scintillation measurement in a beta-radiation measuring instrument (Microbeta, Perkin Elmer).

Assay [7] concerns the target VEGF receptor tyrosine kinase-2 (VEGF-R2) (Homo sapiens (Human), UniProt P35968). Kind of assay: VEGF receptor-2 kinase assay (Assay 4). It is filed as biochemical. The following applies: read-out: VEGF-R2 (Assay 4) Concentration of the half-maximal inhibition of the enzyme activity, IC50.
Experimental: Recombinant VEGF receptor tyrosine kinase-2 was purified as GST fusion protein from baculovirus-infected insect cells (Sf9). Poly-(Glu4Tyr), which was used as kinase substrate, was purchased from Sigma.
VEGF receptor tyrosine kinase (90 ng/measuring point) was incubated for 10 min at 22° C. in the presence of different concentrations of test substances (0 μM, and within the range 0.001-10 μM) in 30 μl of assay buffer [40 mM Tris/HCl pH 5.5; 10 mM MgCl2; 1 mM MnCl2; 3 μM Na ortho-vanadate; 1.0 mM dithiothreitol; 8 μM adenosine trisphosphate (ATP); 0.96 μg/measuring point poly-(Glu4Tyr); 0.2 μCi/measuring point ^33P-gamma ATP; 1.4% dimethyl sulphoxide]. The reaction was stopped by adding EDTA solution (250 mM; pH 8.0; 15 μl/measuring point).
(§2) From each reaction mixture, 15 μl were applied to P30 filter strips (Wallac), and unincorporated ^33P-ATP was removed by washing the filter strips three times, for 10 min in each case, in 0.5% phosphoric acid. After drying the filter strips for 1 hour at 70° C., the filter strips were covered with scintillator strips (MeltiLex™ A, Wallac) and stoved for 1 hour at 90° C. The amount of incorporated ^33P (substrate phosphorylation) was determined by scintillation measurement in a gamma-radiation measuring instrument (Wallac). […] The IC50 values were determined by means of a 4-parameter fit using the company's own software.

Sequence of CDK1/CycB (P06493 whole entry): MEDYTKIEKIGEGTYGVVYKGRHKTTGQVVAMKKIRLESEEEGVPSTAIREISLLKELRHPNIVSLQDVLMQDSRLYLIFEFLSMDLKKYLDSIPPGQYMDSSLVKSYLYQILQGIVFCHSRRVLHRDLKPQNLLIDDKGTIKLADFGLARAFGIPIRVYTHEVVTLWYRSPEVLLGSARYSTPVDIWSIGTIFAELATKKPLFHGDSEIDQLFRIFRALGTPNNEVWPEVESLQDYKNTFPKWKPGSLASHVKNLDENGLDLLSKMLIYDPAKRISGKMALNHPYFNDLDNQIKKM
Sequence of CDK1/CycB (P14635 whole entry partner): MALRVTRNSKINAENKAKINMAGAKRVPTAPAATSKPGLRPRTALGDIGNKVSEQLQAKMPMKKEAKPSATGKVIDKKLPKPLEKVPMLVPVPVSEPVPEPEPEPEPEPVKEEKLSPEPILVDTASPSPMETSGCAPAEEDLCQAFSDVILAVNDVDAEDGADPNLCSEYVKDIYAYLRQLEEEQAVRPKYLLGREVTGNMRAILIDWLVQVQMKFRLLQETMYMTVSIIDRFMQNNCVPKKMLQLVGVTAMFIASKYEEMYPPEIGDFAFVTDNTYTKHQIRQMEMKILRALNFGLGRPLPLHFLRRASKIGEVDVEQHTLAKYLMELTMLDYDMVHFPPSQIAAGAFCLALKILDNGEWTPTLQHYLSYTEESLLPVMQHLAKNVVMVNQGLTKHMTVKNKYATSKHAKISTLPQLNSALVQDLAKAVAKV
Sequence of VEGF receptor tyrosine kinase-2 (VEGF-R2) (P35968 20-1356, species assumed): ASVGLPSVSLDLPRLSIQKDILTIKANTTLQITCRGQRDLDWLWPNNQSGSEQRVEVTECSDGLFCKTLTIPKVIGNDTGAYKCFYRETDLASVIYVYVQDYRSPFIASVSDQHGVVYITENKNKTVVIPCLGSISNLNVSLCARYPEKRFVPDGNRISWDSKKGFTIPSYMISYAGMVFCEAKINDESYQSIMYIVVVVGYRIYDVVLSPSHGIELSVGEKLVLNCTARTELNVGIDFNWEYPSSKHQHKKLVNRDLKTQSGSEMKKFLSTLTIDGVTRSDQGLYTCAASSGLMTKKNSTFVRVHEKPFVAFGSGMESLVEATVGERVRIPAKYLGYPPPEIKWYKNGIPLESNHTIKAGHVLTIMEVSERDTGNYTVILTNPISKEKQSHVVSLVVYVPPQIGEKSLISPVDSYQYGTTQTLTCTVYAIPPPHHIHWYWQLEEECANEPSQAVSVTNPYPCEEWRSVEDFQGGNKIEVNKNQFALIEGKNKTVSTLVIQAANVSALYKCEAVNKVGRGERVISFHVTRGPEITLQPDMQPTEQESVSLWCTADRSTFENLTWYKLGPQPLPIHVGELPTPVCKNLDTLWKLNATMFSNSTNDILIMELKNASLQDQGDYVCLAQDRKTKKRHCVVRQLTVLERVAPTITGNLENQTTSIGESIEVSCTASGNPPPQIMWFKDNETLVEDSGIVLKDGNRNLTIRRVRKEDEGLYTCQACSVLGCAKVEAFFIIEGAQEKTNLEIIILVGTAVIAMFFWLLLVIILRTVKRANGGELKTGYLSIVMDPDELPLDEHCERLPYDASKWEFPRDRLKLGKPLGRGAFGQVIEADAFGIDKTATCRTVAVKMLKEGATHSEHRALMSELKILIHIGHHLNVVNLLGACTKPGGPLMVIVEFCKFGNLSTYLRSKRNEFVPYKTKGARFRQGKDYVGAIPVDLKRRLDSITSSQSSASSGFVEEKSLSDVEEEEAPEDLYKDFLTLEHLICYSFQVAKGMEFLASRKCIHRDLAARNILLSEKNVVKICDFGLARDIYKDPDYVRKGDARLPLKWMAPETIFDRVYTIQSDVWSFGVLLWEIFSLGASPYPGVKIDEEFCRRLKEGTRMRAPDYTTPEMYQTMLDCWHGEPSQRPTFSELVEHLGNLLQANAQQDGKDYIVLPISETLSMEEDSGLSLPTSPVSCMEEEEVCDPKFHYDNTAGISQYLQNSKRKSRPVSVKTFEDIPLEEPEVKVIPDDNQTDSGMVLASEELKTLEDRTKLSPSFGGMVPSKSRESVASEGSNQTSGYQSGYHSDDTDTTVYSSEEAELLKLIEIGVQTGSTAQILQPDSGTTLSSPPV
Sequence of CDK4/CycD1 (P11802 whole entry, the tested form may be a part): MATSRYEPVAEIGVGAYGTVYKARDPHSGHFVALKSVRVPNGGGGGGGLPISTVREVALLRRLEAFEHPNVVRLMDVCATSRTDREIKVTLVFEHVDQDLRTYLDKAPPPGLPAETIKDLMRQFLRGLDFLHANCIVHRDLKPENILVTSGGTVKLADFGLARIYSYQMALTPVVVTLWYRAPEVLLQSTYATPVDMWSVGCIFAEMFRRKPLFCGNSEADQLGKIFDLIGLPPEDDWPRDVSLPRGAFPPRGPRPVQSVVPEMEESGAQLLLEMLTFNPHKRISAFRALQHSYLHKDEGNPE
Sequence of CDK4/CycD1 (P24385 whole entry partner, the tested form may be a part): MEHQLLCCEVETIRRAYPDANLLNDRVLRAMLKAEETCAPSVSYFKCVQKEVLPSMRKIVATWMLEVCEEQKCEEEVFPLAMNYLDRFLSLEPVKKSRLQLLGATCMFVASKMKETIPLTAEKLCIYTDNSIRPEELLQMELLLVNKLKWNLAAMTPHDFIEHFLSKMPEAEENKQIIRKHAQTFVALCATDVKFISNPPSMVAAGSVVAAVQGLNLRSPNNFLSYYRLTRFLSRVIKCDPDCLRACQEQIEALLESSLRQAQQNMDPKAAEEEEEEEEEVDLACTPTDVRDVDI
Experimental for CDK1/CycB: CDK1/CycB (200 ng/measuring point) was incubated for 10 min at 22° C. in the presence of different concentrations of test substances (0 and within the range 0.001-10 μM) in assay buffer [50 mM Tris/HCl pH 8.0; 10 mM MgCl2; 0.1 mM Na ortho-vanadate; 1.0 mM dithiothreitol; 0.5 μM adenosine trisphosphate (ATP); 10 μg/measuring point histone IIIS; 0.2 μCi/measuring point ^33P-gamma ATP; 0.05% NP40; 1.25% dimethyl sulphoxide]. The reaction was stopped by adding EDTA solution (250 mM; pH 8.0; 15 μl/measuring point).
From each reaction mixture, 15 μl were applied to P30 filter strips (Wallac), and unincorporated ^33P-ATP was removed by washing the filter strips three times, for 10 min in each case, in 0.5% phosphoric acid. After drying the filter strips for 1 hour at 70°, the filter strips were covered with scintillator strips (MeltiLex™ A, Wallac) and stoved for 1 hour at 90° C. The amount of incorporated ^33P (substrate phosphorylation) was determined by scintillation measurement in a gamma-radiation measuring instrument (Wallac). […] The IC50 values were determined by means of a 4-parameter fit using the company's own software.
Experimental for CDK2/CycE: Recombinant CDK2 and CycE-GST fusion proteins, purified from baculovirus-infected insect cells (Sf9), were purchased from ProQinase GmbH, Freiburg. Histone IIIS, which was used as kinase substrate, was purchased from Sigma.
CDK2/CycE (50 mg/measuring point) was incubated for 10 min at 22° C. in the presence of different concentrations of test substances (0 μM, and within the range 0.001-10 μM) in assay buffer [50 mM Tris/HCl pH 8.0; 10 mM MgCl2; 0.1 mM Na ortho-vanadate; 1.0 mM dithiothreitol; 0.5 μM adenosine trisphosphate (ATP); 10 μg/measuring point histone IIIS; 0.2 μCi/measuring point ^33P-gamma ATP; 0.05% NP40; 1.25% dimethyl sulphoxide]. The reaction was stopped by adding EDTA solution (250 mM; pH 8.0; 15 μl/measuring point).
as §2

For the compound `C#CCS(=O)(=O)c1ccc(Nc2ncc(C(F)(F)F)c(O[C@H](C)C(C)(C)O)n2)cc1` [Example 10, (R)-2-Methyl-3-{2-[4-(prop-2-yne-1-sulphonyl)phenylamino]-5-trifluoromethylpyrimidin-4-yloxy}butan-2-ol], the figures for the IC50 at CDK1/CycB and on CDK2/CycE were 82 nM and 43 nM, respectively.
For `CC(C)S(=O)(=O)c1ccc(Nc2ncc(C(F)(F)F)c(O[C@H](C)[C@@H](C)O)n2)cc1` [Example 9, (2R,3R)-3-{2-[4-(Propane-2-sulphonyl)phenylamino]-5-trifluoromethylpyrimidin-4-yloxy}butan-2-ol] the same measures were 12 nM and 6 nM.
In the case of `COC[C@@H](C)Oc1nc(Nc2ccc(S(C)(=O)=O)cc2)ncc1C(F)(F)F` [Example 12, (4-Methanesulphonylphenyl) [4-((R)-2-methoxy-1-methyl-ethoxy)-5-trifluoromethylpyrimidin-2-yl]amine], the IC50 on CDK1/CycB turned out to be 51 nM; on CDK2/CycE it was 12 nM; in [1] (96 h, MCF7, 4 days) it was 191 nM.
For `C[C@@H](O)[C@@H](C)Oc1nc(Nc2ccc(S(=O)(=O)C3CCCC3)cc2)ncc1C(F)(F)F` [Example 7, (2R,3R)-3-[2-(4-Cyclopentanesulphonylphenylamino)-5-triluoromethylpyrimidin-4-yloxy]butan-2-ol], the IC50 came to 23 nM on CDK1/CycB and 21 nM at CDK2/CycE.
Regarding `C[C@@H](O)[C@@H](C)Oc1nc(Nc2ccc(S(=O)(=O)c3ccccc3)cc2)ncc1C(F)(F)F` [Example 5, (2R,3R)-3-[2-(4-Benzenesulphonylphenylamino)-5-tri-fluoromethylpyrimidin-4-yloxy]butan-2-ol], the IC50 at CDK1/CycB was determined as 41 nM; on CDK2/CycE, 36 nM.
As to `C=CCOc1nc(Nc2ccc(S(C)(=O)=O)cc2)ncc1C(F)(F)F` [Example 15, (4-Allyloxy-5-trifluoromethylpyrimidin-2-yl)(4-methane-sulphonylphenyl)amine], the IC50 amounted to 280 nM at CDK1/CycB; 49 nM on CDK2/CycE; 1500 nM in [1] (96 h, MCF7, 4 days).
On to `C[C@@H](Oc1nc(Nc2ccc(S(=O)(=O)C3CC3)cc2)ncc1C(F)(F)F)C(C)(C)O` [Example 4, (R)-3-[2-(4-Cyclopropanesulphonylphenylamino)-5-tri-fluoromethylpyrimidin-4-yloxy]-2-methylbutan-2-ol], for which the IC50 on CDK1/CycB was determined as 36 nM; at CDK2/CycE, 21 nM; in assay [2] it was 142 nM; in assay [1] (96 h, MCF7, 4 days) it was 105 nM; in assay [3], 226 nM; in assay [4], 194 nM. The IC50 in assay [5] stood at 205 nM; in [6] it was 287 nM.
Consider `CS(=O)(=O)c1ccc(Nc2ncc(C(F)(F)F)c(OCCC(F)(F)F)n2)cc1` [Example 14, (4-Methanesulphonylphenyl)[5-trifluoromethyl-4-(3,3,3-trifluoropropoxy)pyrimidin-2-yl]amine], for which the IC50 on CDK1/CycB was found to be 740 nM; at CDK2/CycE it was 94 nM; in assay [1] (MCF7, 96 h), 2200 nM.
Turning to `C=CCS(=O)(=O)c1ccc(Nc2ncc(C(F)(F)F)c(O[C@H](C)C(C)(C)O)n2)cc1` [Example 8, (R)-2-Methyl-3-{2-[4-(prop-2-ene-1-sulphonyl)phenylamino]-5-trifluoromethylpyrimidin-4-yl-oxy}butan-2-ol], the IC50 on CDK1/CycB is 43 nM; on CDK2/CycE, 11 nM.
As for `C[C@@H](Nc1nc(Nc2ccc(S(C)(=O)=O)cc2)ncc1C(F)(F)F)C(C)(C)O` [C3, (R)-3-[2-(4-Methanesulphonylphenylamino) 5-trifluoro-methylpyrimidin-4-ylamino]-2-methylbutan-2-ol, reference compound], the IC50 on CDK1/CycB was 9 nM; on CDK2/CycE, 8 nM; on CDK4/CycD1, 24 nM; in [7], 190 nM; in assay [2], 37 nM; in [1] (96 h, MCF7, 4 days), 61 nM. In addition, the IC50 in assay [3] turned out to be 93 nM; in assay [4], 60 nM; in assay [5], 133 nM; in assay [6], 106 nM.
For the compound `CS(=O)(=O)c1ccc(Nc2ncc(C(F)(F)F)c(OC3CCCCC3)n2)cc1` [Example 16, (4-Cyclohexyloxy-5-trifluoromethylpyrimidin-2-yl)(4-methanesulphonylphenyl)amine], the IC50 on CDK1/CycB is over 1000 nM; at CDK2/CycE, 480 nM; in [1] (96 h, MCF7, 4 days) it was 1400 nM.
With `C[C@@H](O)[C@@H](C)Oc1nc(Nc2ccc(S(=O)(=O)CCO)cc2)ncc1C(F)(F)F` [Example 11, (2R,3R)-3-{2-[4-(2-Hydroxyethanesulphonyl)phenylamino]-5-trifluoromethylpyrimidin-4-yloxy}butan-2-ol], the IC50 on CDK1/CycB and on CDK2/CycE was 3 nM throughout.
`C#CCOc1nc(Nc2ccc(S(C)(=O)=O)cc2)ncc1C(F)(F)F` [Example 13, (4-Methanesulphonylphenyl)(4-prop-2-ynyloxy-5-trifluoromethylpyrimidin-2-yl)amine]: the IC50 on CDK1/CycB was found to be 130 nM; at CDK2/CycE, 25 nM; in assay [1] (MCF7, 96 h), 740 nM.
As to `C[C@@H](O)[C@@H](C)Oc1nc(Nc2ccc(S(=O)(=O)C(F)F)cc2)ncc1C(F)(F)F` [Example 6, (2R,3R)-3-{2-[4-(Difluoromethanesulphonyl)phenylamino]-5-trifluoromethylpyrimidin-4-yloxy}butan-2-ol], the IC50 is 24 nM on CDK1/CycB and 12 nM at CDK2/CycE.
